This passage reports IC50 and solubility results from ChEMBL document CHEMBL1157586 (Bioorg Med Chem, 2010).

Molecules are shown by their SMILES. pIC50: −log10 of the molar value. Values after ≈ are worked out from the molar mass of the structure shown. A value given as a limit tells only on which side of the number the result lay.

For one series, the system named is A2780. Briefly: Antiproliferative activity against human A2780 cells after 72 hrs by CellTiter-Glo luminescence assay. The settings on record: A2780, 72 h.
A short description of series [1]: Solubility at pH 7. The settings on record: buffer. The series is classed as physicochemical.
The target in series [2] is Cyclin-dependent kinase 2/cyclin A (Homo sapiens, UniProt P24941). Briefly: Inhibition of human CDK2/cyclin A expressed in Escherichia coli BL21 by scintillation proximity assay. (In general: In a scintillation proximity assay essentially only radioactivity close to the scintillant gives light.)

As usually defined, the pIC50 is −log10 of the IC50, conventionally taken in molar units. Read a low pIC50 as a high IC50. What is called solubility is how much of the substance goes into solution per volume. Low readings indicate a poorly soluble substance, high ones a readily soluble substance. As for `CN1CCC(C(=O)N2Cc3c(NC(=O)C4CCC4)n[nH]c3C2(C)C)CC1`, the negative logarithm of the IC50 (pIC50) in the series with A2780 is 6.85; in series [2] it was 8.05. For the same compound, the solubility in series [1] was more than 225 µM.
For `CN1CCC(C(=O)N2Cc3c(NC(=O)Nc4cccc(F)c4)n[nH]c3C2(C)C)CC1` the same measures were 6.46, 8.00 and more than 225 µM.
With `OC[C@H]1O[C@H](OC[C@H]2O[C@@H](O[C@]3(CO)O[C@H](CO)[C@@H](O)[C@@H]3O)[C@H](O)[C@@H](O)[C@@H]2O)[C@H](O)[C@@H](O)[C@H]1O.OC[C@H]1O[C@H](OC[C@H]2O[C@H](O[C@]3(CO)O[C@H](CO)[C@@H](O)[C@@H]3O)[C@H](O)[C@@H](O)[C@@H]2O)[C@H](O)[C@@H](O)[C@H]1O`, the pIC50 in the series with A2780 was 7.22; in series [2] it was 7.80. In addition, the solubility in series [1] was 200 µM.
For `CC(C)CC(=O)Nc1n[nH]c2c1CN(C(=O)C1CCN(C3CC3)CC1)C2(C)C` the same measures were 6.49, 7.62 and more than 225 µM.
For the compound `CN(C)CC(=O)Nc1n[nH]c2c1CN(C(=O)C(C)(C)C)C2(C)C`, the pIC50 in the series with A2780 was 6.24; in series [2], 7.11. This compound showed a solubility in series [1] of more than 225 µM.
For `CC(=O)N1CCC(C(=O)N2Cc3c(NC(=O)c4ccc(F)cc4)n[nH]c3C2(C)C)CC1` the same measures were less than 5.00, 5.32 and 204 µM (≈ 87.2 µg/mL).
For `CN1CCC(C(=O)N2Cc3c(NC(=O)c4cc(F)cc(F)c4)n[nH]c3C2(C)C)CC1` the same measures were 6.89, 7.80 and more than 225 µM.
With `CN1CCC(C(=O)N2Cc3c(NC(=O)C4CC4)n[nH]c3C2(C)C)CC1`, the values for the pIC50 (with A2780; in series [2]) were 5.85 and 7.82, respectively. Besides, the solubility in series [1] was more than 225 µM.
The corresponding values for `CN1CCN(C(=O)N2Cc3c(NC(=O)c4ccc(F)cc4)n[nH]c3C2(C)C)CC1` are 6.74, 7.34 and more than 225 µM.
In series [1], `CC1(C)c2[nH]nc(NC(=O)c3ccc(F)cc3)c2CN1C(=O)N1CCN(c2ccccc2)CC1` registered a solubility of 55 µM (≈ 25.4 µg/mL). In series [2], this compound showed a negative logarithm of the IC50 (pIC50) of 5.46.
On to `CN1CCC(C(=O)N2Cc3c(NC(=O)c4ccc(Cl)cc4)n[nH]c3C2(C)C)CC1`, for which the pIC50 was 6.92 with A2780 and 7.82 in series [2]. This compound registered a solubility in series [1] of more than 225 µM.
With `CC(=O)N1CCN(C(=O)N2Cc3c(NC(=O)c4ccc(F)cc4)n[nH]c3C2(C)C)CC1`, the results for the negative-log IC50 (pIC50) (in the series on A2780; in series [2]) were less than 5.00 and 6.27, respectively. For the same compound, in series [1], the solubility was more than 225 µM.
For `CN1CCC(C(=O)N2Cc3c(NC(=O)c4ccco4)n[nH]c3C2(C)C)CC1` the same measures were less than 5.30, 7.48 and more than 225 µM.
Take `CN1CCC(C(=O)N2Cc3c(NC(=O)c4ccccc4)n[nH]c3C2(C)C)CC1`: the pIC50 was 6.80 with A2780 and 7.64 in series [2]. In addition, the solubility in series [1] was more than 225 µM.
The corresponding values for `CN1CCC(C(=O)Nc2n[nH]c3c2CN(C(=O)C(C)(C)C)C3(C)C)CC1` are 6.46, 6.67 and more than 225 µM.
On to `CCN1CCC(C(=O)N2Cc3c(NC(=O)CC(C)C)n[nH]c3C2(C)C)CC1`, for which the pIC50 in the series on A2780 was 6.39; in series [2] it was 7.85. The solubility in series [1] was more than 225 µM.
For `CCCNC(=O)Nc1n[nH]c2c1CN(C(=O)C1CCN(C)CC1)C2(C)C` the same measures were 6.19, 7.96 and more than 225 µM.
The corresponding values for `CC(C)(C)C(=O)N1Cc2c(NC(=O)C3CCNCC3)n[nH]c2C1(C)C` are 6.19, 6.77 and more than 225 µM.
In the case of `CN1CCC(C(=O)N2Cc3c(NC(=O)c4cccs4)n[nH]c3C2(C)C)CC1`, the negative-log IC50 (pIC50) in the series on A2780 is 7.52; in series [2], 8.00. The compound also registered a solubility in series [1] of 155 µM (≈ 60.1 µg/mL).
Consider `CC(C)(C)C(=O)N1Cc2c(NC(=O)c3ccc(F)cc3)n[nH]c2C1(C)C`, for which the negative-log IC50 (pIC50) with A2780 was 6.57. This compound displayed a solubility in series [1] of 235 µM (≈ 84.2 µg/mL).
